The source of these data is PubChem BioAssay (NCI).

Test systems include M14 melanoma; HOP-62 NSCLC; U251 CNS; SN12C renal; HOP-18 NSCLC; EKVX NSCLC; HT29 colon; K-562 leukemia; SF-268 CNS; TK-10 renal.
Holding throughout (experiment): NCI-60 cell line screen, 48 h

Several values for one entry are separate records, joined by “and”; a condition that tells them apart may be missing. Identical values can stand only once.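 Five concentrations, 48 hours, 96-well plates. Abbreviation: GI50, concentration required for 50% inhibition of growth. At the TGI there is no net growth.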

As for `Cc1nc(N)sc1C(=O)/C=C/c1ccc(/C=C/C(=O)c2sc(NC(=O)CCCCCCCCC(=O)Nc3nc(C)c(C(=O)/C=C/c4ccc(/C=C/C(=O)c5sc(N)nc5C)cc4)s3)nc2C)cc1`, the TGI with M14 melanoma, with HOP-62 NSCLC, in the test on U251 CNS, with SN12C renal, with HOP-18 NSCLC and with EKVX NSCLC was greater than 100 µM each time. Also, the TGI with HT29 colon, with K-562 leukemia, in the test on SF-268 CNS and in the test on TK-10 renal was greater than 100 µM throughout.
For `COc1cc(C2c3cc4c(cc3[C@@H](Nc3ccc(C(=O)O)cc3)C3COC(=O)[C@H]23)OCO4)cc(OC)c1O` (stereo partly drawn), the TGI was 59.9 µM and > 17.5 µM with M14 melanoma; 33.9 µM and > 17.5 µM in the test on HOP-62 NSCLC; 53 µM and > 17.5 µM with U251 CNS; 75.6 µM and > 17.5 µM in the test with SN12C renal; greater than 100 µM in the test with HOP-18 NSCLC; greater than 100 µM in the test on EKVX NSCLC. Further, the TGI with HT29 colon was 64.8 µM and > 17.5 µM; in the test with K-562 leukemia, greater than 100 µM; in the test with SF-268 CNS, 69.1 µM and > 17.5 µM; with TK-10 renal, greater than 100 µM. In addition, the GI50 with U251 CNS is 12.6 µM and 6.13 µM; in the test with HOP-18 NSCLC, 16.8 µM and 5.25 µM; in the test with K-562 leukemia it was 14.5 µM and 6.68 µM.
As to `CCN(CC)CCC1CC/C(=C\c2ccc(OC)cc2)C1=O` (stereo not drawn), the TGI in the test on M14 melanoma, in the test with HOP-62 NSCLC, in the test with U251 CNS, with SN12C renal, in the test with HOP-18 NSCLC and in the test with EKVX NSCLC was greater than 100 µM in each case. Further, the TGI in the test with HT29 colon, in the test with K-562 leukemia, in the test on SF-268 CNS and in the test with TK-10 renal was greater than 100 µM each time.
